Experimental data: patent publication US7399866B2, “Compounds, compositions, and methods” (Cytokinetics, Inc., priority 2003, dated 2008)

melting point: 145 °C
SMILES: CC(=O)N1CCC[C@@H](Oc2cc(F)cc(NC(=O)Nc3cccnc3)c2)C1 [Example 1, (R)-1-[3-(1-Acetyl-piperidin-3-yloxy)-5-fluoro-phenyl]-3-pyridin-3-yl-urea]
